Assay results taken from patent publication US5607691A, “Compositions and methods for enhanced drug delivery” (priority 1995, dated 1997).
Where a name gives a salt, the structure may show the parent alone.

Assay: in vitro
Type: in vitro ADME, human
Conditions: human, serum, Table 5; human serum, 37° C.; read-out: Serum Half-life (converted)
From the text: Table 4 lists the serum half-lives for several model compounds and two representative pharmaceutical agent-chemical modifier complexes using an in vitro assay system described in the Experimental section below. Of course, the serum half-lives will vary in vivo depending upon the age and health condition of the patient. Each complex comprises a model compound or a pharmaceutical agent, a spacer group, and a chemical modifier. Many of the model compounds utilize 4-nitrophenyl(ethanol, propanol, or cyclohexanol) or 4-nitrophenylethylamine as the "model" pharmaceutical agent. A more complete listing of serum half-lives may be found in the Experimental section below.
General procedure for serum hydrolysis of pharmaceutical agent-modifier complexes
Stock solutions (6 mM) of the pharmaceutical agent-modifier complexes were prepared in ethanol (by vortexing, sonication or warming at 37° C. if necessary). If required for solubility, a drop of dimethylsulfoxide, dimethylformamide or methanol may be added. (Acetonitrile cannot be used because it deactivates the serum enzymes.)
HPLC separation methods were established for each study by dilution of the above stock solution (6 μl) in acetonitrile (1 ml) to give a 36 μM solution. Samples (10 μl) were injected onto a Nucleosil 5C8 (250×4 mmID) and guard column (11×4 mm ID) and eluted with a mobile phase of approximately 65% HPLC grade water and 35% of a solution of 0.1% trifluoroacetic acid in acetonitrile, the exact proportions being adjusted in each case to give optimum separation and run times.
Freshly defrosted human serum (3 ml, Sigma) was warmed at 37° C. for five minutes and then 60 μl of the agent-modifier complex stock solution was added with vortexing. […] The aliquots were added to 800 μl of 2% zinc sulfate solution in a 1.5 ml disposable microcentrifuge tube, vortexed immediately and centrifuged at 14,000 RPM for 3 minutes. The supernatants (10 μl) were then injected onto the HPLC and peak areas were used to determine the % remaining. Serum blanks were prepared similarly by addition of serum to the zinc sulfate solution followed by centrifugation, and time=0 samples were also prepared by adding serum to the zinc sulfate solution followed by addition of the complex and separation by centrifugation. The time=0 samples, as well as the original stock solutions, were also used to study the stability of the complex in the absence of enzyme. Half-lives were calculated using the equation
by plotting time (x) vs. ln % remaining (y) to obtain the slope (m) and the y intercept (b).

Compound	half-life [h]
CC(=O)OC1CC(C(=O)O[C@H]2[C@@H](O)C[C@H](O[C@H]3[C@@H](O)C[C@H](O[C@H]4[C@@H](O)C[C@H](O[C@H]5CC[C@@]6(C)[C@H](CC[C@@H]7[C@@H]6C[C@@H](O)[C@]6(C)[C@@H](C8=CC(=O)OC8)CC[C@]76O)C5)O[C@@H]4C)O[C@@H]3C)O[C@@H]2C)[N+](C)(C)C1 (stereo partly shown) [digoxin-4"'-[(O-acetyl)-betonicine ester], chloride salt]	0.03
CC1OC(OC2C(O)CC(OC3C(O)CC(OC4CCC5(C)C(CCC6C5CC(O)C5(C)C(C7=CC(=O)OC7)CCC65O)C4)OC3C)OC2C)CC(O)C1OC(=O)CCCN(C)C (stereo not shown) [digoxin-4'"-4-(dimethylamino)butyrate]	1.4
CC1OC(OC2C(O)CC(OC3C(O)CC(OC4CCC5(C)C(CCC6C5CC(O)C5(C)C(C7=CC(=O)OC7)CCC65O)C4)OC3C)OC2C)CC(O)C1OC(=O)CCC[N+](C)(C)C (stereo not shown) [digoxin-4'"-(4-trimethylamino)butyrate bromide]	7
CC(=O)OC(CC(=O)OC1C(O)CC(OC2C(O)CC(OC3C(O)CC(OC4CCC5(C)C(CCC6C5CC(O)C5(C)C(C7=CC(=O)OC7)CCC65O)C4)OC3C)OC2C)OC1C)C[N+](C)(C)C (stereo not shown) [digoxin-4'"-(O-acetylcarnitinate) chloride salt]	0.0833
CCCCCCCCCCCCCCCC(=O)OC(CC(=O)OC1C(O)CC(OC2C(O)CC(OC3C(O)CC(OC4CCC5(C)C(CCC6C5CC(O)C5(C)C(C7=CC(=O)OC7)CCC65O)C4)OC3C)OC2C)OC1C)C[N+](C)(C)C (stereo not shown) [digoxin-4'"-(O-palmitoylcarnitinate) chloride salt]	0.317
CC1OC(OC2C(O)CC(OC3C(O)CC(OC4CCC5(C)C(CCC6C5CC(O)C5(C)C(C7=CC(=O)OC7)CCC65O)C4)OC3C)OC2C)CC(O)C1OC(=O)OCC[N+](C)(C)C (stereo not shown) [digoxin-4'"-(choline chloride) carbonate ester]	0.0219
CC(CCCC(=O)OC1C(O)CC(OC2C(O)CC(OC3C(O)CC(OC4CCC5(C)C(CCC6C5CC(O)C5(C)C(C7=CC(=O)OC7)CCC65O)C4)OC3C)OC2C)OC1C)OC(=O)CCC[N+](C)(C)C (stereo not shown) [digoxin-4'"-[5-(4-trimethylaminobutyroyloxy)-hexanoate] bromide salt]	14
CC1OC(OC2C(O)CC(OC3C(O)CC(OC4CCC5(C)C(CCC6C5CC(O)C5(C)C(C7=CC(=O)OC7)CCC65O)C4)OC3C)OC2C)CC(O)C1OC(=O)C1CCC[N+]1(C)C (stereo not shown) [digoxin-4'"-stachydrine ester, chloride salt]	0.085
CC1OC(OC2CCC3(C)C(CCC4C3CC(OC(=O)CCC[N+](C)(C)C)C3(C)C(C5=CC(=O)OC5)CCC43O)C2)CC(O)C1OC1CC(O)C(OC2CC3OC(=O)OC3C(C)O2)C(C)O1 (stereo not shown) [digoxin-12-(4-trimethylaminobutyrate)-3'",4'"-cyclic carbonate, bromide salt]	96
CC1OC(OC2CCC3(C)C(CCC4C3CC(OC(=O)OC[N+](C)(C)C)C3(C)C(C5=CC(=O)OC5)CCC43O)C2)CC(O)C1OC1CC(O)C(OC2CC3OC(=O)OC3C(C)O2)C(C)O1 (stereo not shown) [digoxin-12-(N,N,N-trimethylaminomethyl)-carbonate 3"',4'"-cyclic carbonate, chloride salt]	0.7
CC1OC(OC2CCC3(C)C(CCC4C3CC(OC(=O)OCC[N+](C)(C)C)C3(C)C(C5=CC(=O)OC5)CCC43O)C2)CC(O)C1OC1CC(O)C(OC2CC3OC(=O)OC3C(C)O2)C(C)O1 (stereo not shown) [digoxin-12-(choline carbonate)-3'",4'"-cyclic carbonate, bromide salt]	29
C[C@H]1O[C@@H](O[C@H]2[C@@H](O)C[C@H](O[C@H]3[C@@H](O)C[C@H](O[C@H]4CC[C@@]5(C)[C@H](CC[C@@H]6[C@@H]5C[C@@H](OC(=O)OCCCCCCOC(=O)C[N+](C)(C)C)[C@]5(C)[C@@H](C7=CC(=O)OC7)CC[C@]65O)C4)O[C@@H]3C)O[C@@H]2C)C[C@@H]2OC(=O)O[C@@H]21 [digoxin-12-[1-(6-betainoyloxyhexyl)]carbonate-3"',4"'-cyclic carbonate, chloride salt]	470
CC1OC(OC2CCC3(C)C(CCC4C3CC(OC(=O)CCCN(C)C)C3(C)C(C5=CC(=O)OC5)CCC43O)C2)CC(O)C1OC1CC(O)C(OC2CC3OC(=O)OC3C(C)O2)C(C)O1 (stereo not shown) [digoxin-12-[4-(N,N-dimethylamino)butyrate]-3"',4'"-cyclic carbonate, hydrochloride salt]	24
CC(CCCC(=O)OC1CC2C(CCC3CC(OC4CC(O)C(OC5CC(O)C(OC6CC7OC(=O)OC7C(C)O6)C(C)O5)C(C)O4)CCC32C)C2(O)CCC(C3=CC(=O)OC3)C12C)OC(=O)CCC[N+](C)(C)C (stereo not shown) [digoxin-12-[5-(4-trimethylaminobutyroyloxy)-hexanoate]-3'",4'"-cyclic carbonate]	504
CC1OC(OC2CCC3(C)C(CCC4C3CC(OC(=O)CCCCC[N+](C)(C)C)C3(C)C(C5=CC(=O)OC5)CCC43O)C2)CC(O)C1OC1CC(O)C(OC2CC3OC(=O)OC3C(C)O2)C(C)O1 (stereo not shown) [digoxin-12-[6-(N,N,N-trimethylamino)hexanoate]-3'"-4'"-cyclic carbonate, bromide salt]	336
CC1OC(OC2CCC3(C)C(CCC4C3CC(OC(=O)CCCCCN(C)C)C3(C)C(C5=CC(=O)OC5)CCC43O)C2)CC(O)C1OC1CC(O)C(OC2CC3OC(=O)OC3C(C)O2)C(C)O1 (stereo not shown) [digoxin-12-[6-(N,N-dimethylamino)hexanoate]-3'",4'"-cyclic carbonate]	605
C[C@H]1O[C@@H](O[C@H]2[C@@H](O)C[C@H](O[C@H]3[C@@H](O)C[C@H](O[C@H]4CC[C@@]5(C)[C@H](CC[C@@H]6[C@@H]5C[C@@H](OC(=O)OC[N+](C)(C)CCCCCC(=O)O)[C@]5(C)[C@@H](C7=CC(=O)OC7)CC[C@]65O)C4)O[C@@H]3C)O[C@@H]2C)C[C@@H]2OC(=O)O[C@@H]21 [digoxin-12-[N-(5-carboxypentyl)-N,N-dimethylaminomethyl carbonate]-3"',4"'-cyclic carbonate, bromide salt]	0.8
C[C@H]1O[C@@H](O[C@H]2[C@@H](O)C[C@H](O[C@H]3[C@@H](O)C[C@H](O[C@H]4CC[C@@]5(C)[C@H](CC[C@@H]6[C@@H]5C[C@@H](OC(=O)c5cccnc5)[C@]5(C)[C@@H](C7=CC(=O)OC7)CC[C@]65O)C4)O[C@@H]3C)O[C@@H]2C)C[C@@H]2OC(=O)O[C@@H]21 [digoxin-12-nicotinate ester-3"',4"'-cyclic carbonate]	331
C[C@H]1O[C@@H](O[C@H]2[C@@H](O)C[C@H](O[C@H]3[C@@H](O)C[C@H](O[C@H]4CC[C@@]5(C)[C@H](CC[C@@H]6[C@@H]5C[C@@H](OC(=O)[C@@H]5CCC[N+]5(C)C)[C@]5(C)[C@@H](C7=CC(=O)OC7)CC[C@]65O)C4)O[C@@H]3C)O[C@@H]2C)C[C@@H]2OC(=O)O[C@@H]21 [digoxin-12-stachydrine ester-3"',4"'-cyclic carbonate, chloride salt]	4.9
C[C@]12CCC(=O)C(OC(=O)OCC[N+](C)(C)C)=C1CC[C@@H]1[C@@H]2CC[C@]2(C)C(=O)CC[C@@H]12 [formestane-4-choline carbonate, bromide salt]	0.433
CCCC[N+](C)(C)CCOC(=O)Cc1c(C)n(C(=O)c2ccc(Cl)cc2)c2ccc(OC)cc12 [indomethacin 2-(N-(1-butyl)-N,N-dimethylaminoethyl ester, bromide salt]	0.0106
COc1ccc2c(c1)c(CC(=O)OCC[N+](C)(C)CCO)c(C)n2C(=O)c1ccc(Cl)cc1 [indomethacin 2-(N-(2-hydroxyethyl)-N,N-dimethyl) aminoethyl ester, bromide salt]	0.0163
COc1ccc2c(c1)c(CC(=O)OCCNC(=O)CCCCC[N+](C)(C)C)c(C)n2C(=O)c1ccc(Cl)cc1 [indomethacin 2-[N-(6'-N',N',N'-trimethylamino)-hexanamido]ethyl ester, iodide salt]	22.6
COc1ccc2c(c1)c(CC(=O)OCCNC(=O)CCCCCN(C)C)c(C)n2C(=O)c1ccc(Cl)cc1 [indomethacin 2-[N-(6'-N',N'-dimethylamino)hexanamido]ethyl ester]	13.6
COc1ccc2c(c1)c(CC(=O)OCCN(C)C(=O)CCCCC[N+](C)(C)C)c(C)n2C(=O)c1ccc(Cl)cc1 [indomethacin 2-[N-methyl-N-(6'-N',N',N'-trimethyl-amino)hexanamido]ethyl ester, iodide salt]	3.4
COc1ccc2c(c1)c(CC(=O)OCCN(C)C(=O)CCCCCN(C)C)c(C)n2C(=O)c1ccc(Cl)cc1 [indomethacin 2-[N-methyl-N-(6'-N',N'-dimethylamino)hexanamido]ethyl ester]	0.225
COc1ccc2c(c1)c(CC(=O)OCOC(=O)CCCCCNC(=O)C[C@H](C[N+](C)(C)C)OC(C)=O)c(C)n2C(=O)c1ccc(Cl)cc1 [indomethacin 6-(O-acetyl-L-carnitinamido)hexanoyloxymethyl ester, chloride salt]	0.5

Same assay, conditions: human, serum, untitled table of digoxin derivatives (position/substituent); assay not given; read-out: Half Life (converted)

Compound	half-life [h]
CC1OC(OC2CCC3(C)C(CCC4C3CC(OC(=O)CCC[N+](C)(C)C)C3(C)C(C5=CC(=O)OC5)CCC43O)C2)CC(O)C1OC1CC(O)C(OC2CC3OC(=O)OC3C(C)O2)C(C)O1 (stereo not shown) [digoxin-12-(4-trimethylaminobutyrate)-3'",4'"-cyclic carbonate, bromide salt]	96
